The target of assay [1] is T1, Alpha-1D adrenergic receptor (Homo sapiens, UniProt P25100).
T1 sequence (P25100 whole entry): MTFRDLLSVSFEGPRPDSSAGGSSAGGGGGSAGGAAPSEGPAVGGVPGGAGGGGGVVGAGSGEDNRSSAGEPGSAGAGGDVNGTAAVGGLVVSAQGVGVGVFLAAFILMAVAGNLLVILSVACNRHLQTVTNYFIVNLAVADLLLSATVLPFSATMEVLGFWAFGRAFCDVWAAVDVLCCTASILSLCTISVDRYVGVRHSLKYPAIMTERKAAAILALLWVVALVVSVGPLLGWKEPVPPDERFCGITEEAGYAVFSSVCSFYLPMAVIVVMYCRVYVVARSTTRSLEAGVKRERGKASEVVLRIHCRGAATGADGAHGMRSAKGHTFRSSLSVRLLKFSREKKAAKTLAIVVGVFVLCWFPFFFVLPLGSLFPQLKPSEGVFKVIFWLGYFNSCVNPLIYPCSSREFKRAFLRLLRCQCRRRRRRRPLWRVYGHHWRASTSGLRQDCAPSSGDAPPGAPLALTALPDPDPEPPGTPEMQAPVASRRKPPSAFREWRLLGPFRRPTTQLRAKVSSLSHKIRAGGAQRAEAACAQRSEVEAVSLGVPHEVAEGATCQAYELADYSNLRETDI
As to the kind of experiment: Displacement of [3H]prazosin from human Alpha-1D adrenergic receptor expressed in CHO cells. In kind it is cell-based.

For assay [2], the target named is T2, 5-hydroxytryptamine receptor 1A (Homo sapiens, UniProt P08908).
T2 sequence (P08908 whole entry): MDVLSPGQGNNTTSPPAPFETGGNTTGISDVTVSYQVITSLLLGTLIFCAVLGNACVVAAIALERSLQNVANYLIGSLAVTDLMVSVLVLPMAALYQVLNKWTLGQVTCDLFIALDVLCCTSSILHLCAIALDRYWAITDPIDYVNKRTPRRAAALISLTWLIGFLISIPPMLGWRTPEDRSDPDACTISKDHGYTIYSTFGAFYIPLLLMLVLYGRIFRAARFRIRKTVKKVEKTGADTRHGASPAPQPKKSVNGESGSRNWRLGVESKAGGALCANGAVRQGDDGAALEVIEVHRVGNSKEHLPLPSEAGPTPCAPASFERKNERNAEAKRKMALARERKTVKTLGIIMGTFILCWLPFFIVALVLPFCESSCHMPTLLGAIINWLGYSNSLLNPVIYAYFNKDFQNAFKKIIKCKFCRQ
As to the kind of experiment: Displacement of [3H]8-OH-DPAT from human 5-HT1A receptor expressed in human HeLa cells. The class given is cell-based. Background: Displacement assays read how much labelled ligand stays bound in the presence of the test substance.

Another assay deals with Vas deferens. As to the kind of experiment: Inhibition of noradrenaline-induced contraction in rat prostatic vas deferens. In kind it is functional.
The subject of the next assay is Spleen. Briefly: Inhibition of noradrenaline-induced contraction in rat spleen. The class given is functional.
Another assay has as its system Thoracic aorta. Briefly: Inhibition of noradrenaline-induced contraction in rat thoracic aorta. In kind it is functional.
Another assay is filed under the species Homo sapiens. As to the kind of experiment: Selectivity ratio of pKi for human 5-HT1A receptor to pKi for human alpha1 adrenergic receptor.
Assay [3] addresses T3, 5-hydroxytryptamine receptor 1A (Homo sapiens) (UniProt P08908).
T3 sequence (whole entry): T2 sequence (P08908 whole entry)
As to the kind of experiment: Agonist activity at human recombinant 5HT1A receptor expressed in human HeLa cells by [35S]GTPgammaS binding assay relative to serotonin. In kind it is functional, cell-based. In general terms: GTPγS is a poorly hydrolysed GTP analogue; its binding reports G protein activation.

The target in assay [4] is T3, 5-hydroxytryptamine receptor 1A (Homo sapiens). Briefly: Agonist activity at human recombinant 5HT1A receptor expressed in human HeLa cells by [35S]GTPgammaS binding assay. In kind it is functional, cell-based.
In assay [5] the target is T4, Alpha-1A adrenergic receptor (Homo sapiens, UniProt P35348).
T4 sequence (P35348 whole entry): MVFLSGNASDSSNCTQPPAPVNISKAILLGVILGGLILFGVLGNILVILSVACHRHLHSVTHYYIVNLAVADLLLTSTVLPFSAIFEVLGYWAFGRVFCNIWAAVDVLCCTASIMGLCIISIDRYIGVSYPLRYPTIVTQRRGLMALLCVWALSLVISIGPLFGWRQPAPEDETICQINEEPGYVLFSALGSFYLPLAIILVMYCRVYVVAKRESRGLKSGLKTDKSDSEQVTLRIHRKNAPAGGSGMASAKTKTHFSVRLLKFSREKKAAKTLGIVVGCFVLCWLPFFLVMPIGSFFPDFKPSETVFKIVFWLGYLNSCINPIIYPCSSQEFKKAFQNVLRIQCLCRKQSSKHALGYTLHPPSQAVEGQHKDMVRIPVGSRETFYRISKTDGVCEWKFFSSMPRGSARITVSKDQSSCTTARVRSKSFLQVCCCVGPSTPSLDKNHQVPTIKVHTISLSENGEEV
Briefly: Displacement of [3H]prazosin from human alpha1A adrenergic receptor expressed in CHO cells. In kind it is cell-based.

Assay [6] deals with T5, Alpha-1B adrenergic receptor (Homo sapiens, UniProt P35368).
T5 sequence (P35368 whole entry): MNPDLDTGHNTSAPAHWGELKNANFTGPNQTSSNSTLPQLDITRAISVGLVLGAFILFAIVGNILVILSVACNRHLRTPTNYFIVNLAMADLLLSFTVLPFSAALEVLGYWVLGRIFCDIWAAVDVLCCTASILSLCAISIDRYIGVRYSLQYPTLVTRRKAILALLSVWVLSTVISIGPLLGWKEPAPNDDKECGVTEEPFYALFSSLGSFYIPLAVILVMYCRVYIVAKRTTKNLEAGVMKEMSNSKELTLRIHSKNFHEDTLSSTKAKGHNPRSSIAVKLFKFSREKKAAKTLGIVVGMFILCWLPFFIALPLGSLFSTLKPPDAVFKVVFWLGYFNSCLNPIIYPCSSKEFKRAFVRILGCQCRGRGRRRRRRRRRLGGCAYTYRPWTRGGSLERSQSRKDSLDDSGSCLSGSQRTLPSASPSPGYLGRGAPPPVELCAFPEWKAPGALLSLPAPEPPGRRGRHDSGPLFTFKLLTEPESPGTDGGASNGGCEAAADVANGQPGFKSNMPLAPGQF
Briefly: Displacement of [3H]prazosin from human Alpha-1B adrenergic receptor expressed in CHO cells. The class given is cell-based.

Data on 17 compounds can be found in ChEMBL document CHEMBL1155434, “Discovery of a new series of 5-HT1A receptor agonists” (Bioorg Med Chem Lett, 2010).

Some results are limits rather than exact numbers.

The Ki is the dissociation constant of the complex between target and ligand, obtained from inhibition or displacement. High values mean weaker binding, low ones tighter binding. In general, pKb refers to the Kb on a negative log10 scale, so that one unit is a factor of ten. A low value points to a large Kb. By Emax is commonly meant the size of the effect at its maximum, as opposed to the concentration needed. For the compound `COc1cccc(OCCNCC2COC(c3ccccc3)(c3ccccc3)O2)c1` (racemic), the Ki was 57.5 nM in assay [1], 2.63 nM in assay [2], 91.2 nM in assay [5] and 58.9 nM in assay [6]. Also, the results for the negative-log Kb (pKb) in the assay with Vas deferens, with Spleen and in the assay on Thoracic aorta were 5.75, 5.79 and 6.61, respectively. For the same compound, the Ratio pKi in the assay listed under Homo sapiens worked out at 22. Moreover, in assay [3], the maximum response (Emax) is 14%. Moreover, the pD2 in assay [4] came out at 5.97.

In the case of `c1ccc(-c2ccc(OCCNCC3COC(c4ccccc4)(c4ccccc4)O3)cc2)cc1` (racemic), the inhibition constant Ki in [1], in [2], in assay [5] and in [6] was over 1000 nM throughout. The results for the negative-log Kb (pKb) in the assay with Vas deferens, in the assay with Spleen and in the assay with Thoracic aorta were 5.65, 5.84 and 5.08, respectively.

As for `c1ccc(-c2cccc(OCCNCC3COC(c4ccccc4)(c4ccccc4)O3)c2)cc1` (racemic), the Ki in assay [1] was over 1000 nM; in [2], 28.8 nM; in assay [5], over 1000 nM; in assay [6] it was over 1000 nM. The negative logarithm of the Kb (pKb) with Vas deferens is 5.19; in the assay with Spleen it was 6.21; in the assay on Thoracic aorta, under 5. Also, in the assay listed under Homo sapiens, the Ratio pKi is over 35.

With `c1ccc(-c2ccccc2OCCNCC2COC(c3ccccc3)(c3ccccc3)O2)cc1` (racemic), the inhibition constant Ki was 331 nM in assay [1], 2.19 nM in assay [2], 490 nM in assay [5] and over 1000 nM in assay [6]. The pKb in the assay with Vas deferens is given as under 5; in the assay with Spleen, 5.47; with Thoracic aorta, 6.1. Besides, the Ratio pKi in the assay listed under Homo sapiens was 151. For the same compound, the Emax in [3] is 73%. The pD2 in assay [4] worked out at 7.82.

Turning to `CC(C)Oc1ccccc1OCCNCC1COC(c2ccccc2)(c2ccccc2)O1` (racemic), the inhibitory constant (Ki) in [1] is 6.31 nM; in assay [2], 1.7 nM; in assay [5], 2.09 nM; in [6], 20 nM. For the same compound, the pKb in the assay on Vas deferens stood at 7.25; with Spleen, 7.25; in the assay with Thoracic aorta it was 7.59. For the same compound, in the assay filed under Homo sapiens, the Ratio pKi was found to be 1. The maximal effect (Emax) in assay [3] is 25%. Moreover, the pD2 in assay [4] is 9.08.

On to `CCOc1ccccc1OCCNCC1COC(c2ccccc2)(c2ccccc2)O1` (racemic), for which the inhibition constant Ki is 6.76 nM in [1], 0.891 nM in assay [2], 6.61 nM in [5] and 53.7 nM in assay [6]. For the same compound, the negative-log Kb (pKb) with Vas deferens is recorded as 7.23; in the assay with Spleen, 6.92; in the assay with Thoracic aorta it was 7.91. Besides, the Ratio pKi in the assay filed under Homo sapiens was found to be 7. Besides, the Emax in [3] worked out at 36%. In assay [4], the pD2 was 9.08.

As for `COc1cc(OC)cc(OCCNCC2COC(c3ccccc3)(c3ccccc3)O2)c1` (racemic), the Ki in assay [1] was over 1000 nM; in [2] it was over 1000 nM; in [5], 302 nM; in assay [6], 447 nM. Further, the values for the pKb with Vas deferens, in the assay with Spleen and in the assay with Thoracic aorta were 5.41, 5.49 and 6.77, respectively. Further, the Ratio pKi in the assay filed under Homo sapiens was found to be 0.2.

For the compound `COc1ccc(OCCNCC2COC(c3ccccc3)(c3ccccc3)O2)cc1OC` (racemic), the inhibition constant (Ki) in assay [1] was over 1000 nM; in assay [2] it was 97.7 nM; in assay [5], over 1000 nM; in [6], 138 nM. Further, the figures for the negative logarithm of the Kb (pKb) in the assay on Vas deferens, with Spleen and in the assay on Thoracic aorta were 5.09, 6.01 and 6.9, respectively. Also, the Ratio pKi in the assay filed under Homo sapiens was found to be 1.4.

With `COc1cccc(OCCNCC2COC(c3ccccc3)(c3ccccc3)O2)c1OC` (racemic), the inhibition constant (Ki) in assay [1] is 355 nM; in [2] it was 7.59 nM; in assay [5], 85.1 nM; in assay [6] it was 174 nM. Besides, the negative logarithm of the Kb (pKb) with Vas deferens was found to be 5.86; with Spleen, 5.85; in the assay with Thoracic aorta it was 6.64. Also, the Ratio pKi in the assay filed under Homo sapiens stood at 11.

For the compound `COc1ccccc1OCCNCC1COC(c2ccccc2)(c2ccccc2)O1` (racemic), the inhibition constant (Ki) was 0.603 nM in [2], 19.5 nM in [5] and 46.8 nM in [6]. Besides, the negative logarithm of the Kb (pKb) in the assay on Vas deferens is 7.53; in the assay with Spleen it was 7.36; with Thoracic aorta, 8.65. For the same compound, in the assay listed under Homo sapiens, the Ratio pKi is 15. The Emax in assay [3] came out at 32%. Also, the pD2 in assay [4] was 7.36.

On to `c1ccc(OCCNCC2COC(c3ccccc3)(c3ccccc3)O2)cc1` (racemic), for which the inhibition constant Ki in assay [2] is 3.55 nM. The pKb with Vas deferens turned out to be 6.16; with Spleen, 5.86; in the assay with Thoracic aorta it was 8.37. Moreover, in the assay listed under Homo sapiens, the Ratio pKi was 3. Besides, the maximal response (Emax) in [3] turned out to be 24%. Moreover, in assay [4], the pD2 was 8.8.

As for `Cc1ccccc1OCCNCC1COC(c2ccccc2)(c2ccccc2)O1` (racemic), the inhibition constant Ki is 25.7 nM in [1], 8.32 nM in assay [2], 117 nM in assay [5] and 240 nM in assay [6]. The pKb was 6.02 in the assay on Vas deferens, 5.73 with Spleen and 6.77 in the assay with Thoracic aorta. In addition, the Ratio pKi in the assay listed under Homo sapiens was 3.

As to `COc1cccc(OC)c1OCCNCC1COC(c2ccccc2)(c2ccccc2)O1` (racemic), the inhibition constant Ki in assay [1] is 182 nM; in assay [2], 53.7 nM; in assay [5], 100 nM; in assay [6], 75.9 nM. Besides, the figures for the negative logarithm of the Kb (pKb) in the assay on Vas deferens, in the assay with Spleen and in the assay with Thoracic aorta were 5.73, 5.89 and 6.93, respectively. For the same compound, the Ratio pKi in the assay filed under Homo sapiens turned out to be 14.

As to `COc1ccc(OCCNCC2COC(c3ccccc3)(c3ccccc3)O2)cc1` (racemic), the pKb is given as under 5 with Vas deferens, 6.25 in the assay with Spleen and 6.94 in the assay on Thoracic aorta.

On to `COc1ccccc1CCCNCC1COC(c2ccccc2)(c2ccccc2)O1` (racemic), for which the Ki in assay [1] is 50.1 nM; in assay [2] it was 7.94 nM; in [5], 49 nM; in assay [6] it was 41.7 nM. The pKb with Vas deferens came to 5.92; with Spleen it was 5.97; with Thoracic aorta it was 6.86. Also, the Ratio pKi in the assay listed under Homo sapiens is 6. Further, the maximal effect (Emax) in [3] was determined as 14%. In addition, the pD2 in assay [4] came out at 5.92.

`CCCN(CCC)C1CCc2cccc(O)c2C1` (stereo not drawn) [8-OH-DPAT]: in assay [6], the Ki is over 1000 nM.

Turning to `COc1ccccc1N1CCN(CCN2C(=O)CC3(CCCC3)CC2=O)CC1` [BMY-7378], the pKb in the assay on Spleen is on record as 7.48. Also, the Emax in assay [3] worked out at 26%. Also, the pD2 in assay [4] stood at 9.27.
